Results: ChEMBL document CHEMBL4385621, “Synthesis and in vitro cytotoxicity evaluation of β-carboline-combretastatin carboxamides as apoptosis inducing agents: DNA intercalation and topoisomerase-II inhibition” (Bioorg Med Chem, 2019)
Activity calls are given as the source filed them. No cut-off for these calls is given here.

Columns and labels:
[1] = test system: HeLa; test: Antiproliferative activity against human HeLa cells assessed as reduction in cell viability after 48 hrs by SRB assay; format: functional, cell-based
[2] = test system: DU-145; test: Antiproliferative activity against human DU145 cells assessed as reduction in cell viability after 48 hrs by SRB assay; format: functional, cell-based; conditions: DU-145, 48 h
[3] = test system: A549; test: Antiproliferative activity against human A549 cells assessed as reduction in cell viability after 48 hrs by SRB assay; format: functional, cell-based; conditions: A549, 48 h
[4] = target: DNA topoisomerase II (Homo sapiens) (UniProt P11388+Q02880); test: Inhibition of human topoisomerase-2 assessed as reduction in decatenation of kDNA at 10 uM incubated for 30 mins by ethidium bromide staining based agarose gel electrophoresis method; format: protein assay
[5] = test system: Calf thymus DNA; test: Binding affinity to calf thymus DNA assessed as dissociation constant after 5 mins by UV-Visible spectroscopic method; format: nucleic-acid assay, Bos taurus
[6] = test system: Calf thymus DNA; test: Binding affinity to calf thymus DNA assessed as decrease in emission peak intensity by spectrofluorimetric method; format: nucleic-acid assay; conditions: Bos taurus
[7] = test system: Calf thymus DNA; test: Binding affinity to calf thymus DNA assessed as decrease in emission peak intensity using varying DNA level by spectrofluorimetric method; format: nucleic-acid assay; conditions: Bos taurus
[8] = test system: Calf thymus DNA; test: Binding affinity to calf thymus DNA assessed as hypochromicity after 5 mins by UV-Vis absorption spectral analysis; format: nucleic-acid assay; conditions: Bos taurus
[9] = test system: Calf thymus DNA; test: Binding affinity to calf thymus DNA by circular dichroism spectropolarimetric analysis; format: nucleic-acid assay; conditions: Bos taurus

SMILES	IC50 [1] [µM]	IC50 [2] [µM]	IC50 [3] [µM]	inhibition [4]	Activity [6]	Activity [7]	Activity [8]	Activity [9]	Kd [5] [µM]
COc1ccc(-c2nc(CNC(=O)/C(=C/c3ccc(C(F)(F)F)cc3)c3cc(OC)c(OC)c(OC)c3)cc3c2[nH]c2ccccc23)cc1	3.16	1.37	1.17	Active	Active	Active	Active	Active	112
COc1cc(/C(=C\c2ccc(Cl)cc2)C(=O)NCc2cc3c([nH]c4ccccc43)c(-c3cccc(F)c3)n2)cc(OC)c1OC	31.3	8.44	22.2	–	–	–	–	–	–
COc1ccc(-c2nc(CNC(=O)/C(=C/c3ccc(OC(C)=O)c(OC)c3)c3cc(OC)c(OC)c(OC)c3)cc3c2[nH]c2ccccc23)cc1	11.9	9.78	5.49	–	–	–	–	–	–
COc1cc(/C=C(/C(=O)NCc2cc3c([nH]c4ccccc43)c(-c3cc(OC)c(OC)c(OC)c3)n2)c2cc(OC)c(OC)c(OC)c2)cc(OC)c1OC	36.4	15.7	10.6	–	–	–	–	–	–
COc1ccc2c(c1)[nH]c1c(C)nccc12 [HARMINE]	9.66	9.63	5.89	–	–	–	–	–	–
COc1ccc(-c2nc(CNC(=O)/C(=C/c3ccc(O)c(OC)c3)c3cc(OC)c(OC)c(OC)c3)cc3c2[nH]c2ccccc23)cc1	6.31	2.81	1.79	–	–	–	–	–	–
CCOc1ccccc1/C=C(/C(=O)NCc1cc2c([nH]c3ccccc32)c(-c2cccc(F)c2)n1)c1cc(OC)c(OC)c(OC)c1	14	2.18	2.95	–	–	–	–	–	–
COc1cc(/C=C(/C(=O)NCc2cc3c([nH]c4ccccc43)c(-c3cccc(F)c3)n2)c2cc(OC)c(OC)c(OC)c2)cc(OC)c1	17.2	2.57	1.99	–	–	–	–	–	–
COc1ccc(/C=C(/C(=O)NCc2cc3c([nH]c4ccccc43)c(-c3cccc(F)c3)n2)c2cc(OC)c(OC)c(OC)c2)cc1	39.5	12.6	12.9	–	–	–	–	–	–
COc1ccc(/C=C(/C(=O)NCc2cc3c([nH]c4ccccc43)c(-c3cccc(F)c3)n2)c2cc(OC)c(OC)c(OC)c2)cc1OC(C)=O	13.6	2.46	3.07	–	–	–	–	–	–
COc1cc([C@@H]2c3cc4c(cc3[C@@H](O[C@@H]3O[C@@H]5CO[C@@H](C)O[C@H]5[C@H](O)[C@H]3O)[C@H]3COC(=O)[C@H]23)OCO4)cc(OC)c1O [ETOPOSIDE]	2.66	2.47	2.17	–	–	–	–	–	–
COc1cc(/C=C(/C(=O)NCc2cc3c([nH]c4ccccc43)c(-c3cccc(F)c3)n2)c2cc(OC)c(OC)c(OC)c2)ccc1O	19.1	2.44	2.55	–	–	–	–	–	–
COc1cc(/C(=C\c2cccc(F)c2)C(=O)NCc2cc3c([nH]c4ccccc43)c(-c3cccc(F)c3)n2)cc(OC)c1OC	19.7	3.89	2.88	–	–	–	–	–	–
COc1cc(/C(=C\c2ccc(C)cc2)C(=O)NCc2cc3c([nH]c4ccccc43)c(-c3cccc(F)c3)n2)cc(OC)c1OC	14	1.81	1.31	–	–	–	–	–	–
COc1ccc(/C=C(/C(=O)NCc2cc3c([nH]c4ccccc43)c(-c3cccc(F)c3)n2)c2cc(OC)c(OC)c(OC)c2)cc1O	9.68	1.87	1.62	–	–	–	–	–	–
CCOc1ccccc1/C=C(/C(=O)NCc1cc2c([nH]c3ccccc32)c(-c2ccc(OC)cc2)n1)c1cc(OC)c(OC)c(OC)c1	16.3	10.9	11.7	–	–	–	–	–	–
COc1ccc(-c2nc(CNC(=O)/C(=C/c3ccc(OC)c(O)c3)c3cc(OC)c(OC)c(OC)c3)cc3c2[nH]c2ccccc23)cc1	18	10.2	3.09	–	–	–	–	–	–
COc1ccc(-c2nc(CNC(=O)/C(=C/c3cccc(F)c3)c3cc(OC)c(OC)c(OC)c3)cc3c2[nH]c2ccccc23)cc1	27.6	4.07	3.54	–	–	–	–	–	–
COc1ccc(-c2nc(CNC(=O)/C(=C/c3ccc(OC)c(OC(C)=O)c3)c3cc(OC)c(OC)c(OC)c3)cc3c2[nH]c2ccccc23)cc1	8.41	3.54	2.75	–	–	–	–	–	–
COc1ccc(-c2nc(CNC(=O)/C(=C/c3ccc(Cl)cc3)c3cc(OC)c(OC)c(OC)c3)cc3c2[nH]c2ccccc23)cc1	37.5	13	9.65	–	–	–	–	–	–
COc1cc(/C=C(/C(=O)NCc2cc3c([nH]c4ccccc43)c(-c3cccc(F)c3)n2)c2cc(OC)c(OC)c(OC)c2)ccc1OC(C)=O	26.1	11.7	14.2	–	–	–	–	–	–
COc1ccc(-c2nc(CNC(=O)/C(=C/c3ccc(C)cc3)c3cc(OC)c(OC)c(OC)c3)cc3c2[nH]c2ccccc23)cc1	14.5	2.57	1.38	–	–	–	–	–	–

Second part, led by results:

IC50 [1] [µM]	IC50 [2] [µM]	IC50 [3] [µM]	inhibition [4]	Activity [6]	Activity [7]	Activity [8]	Activity [9]	SMILES	Kd [5] [µM]
14.7	2.04	1.11	–	–	–	–	–	COc1cc(/C(=C\c2ccc(C(F)(F)F)cc2)C(=O)NCc2cc3c([nH]c4ccccc43)c(-c3cc(OC)c(OC)c(OC)c3)n2)cc(OC)c1OC	–
4.46	2.63	1.12	–	–	–	–	–	COc1cc(/C(=C\c2ccc(C)cc2)C(=O)NCc2cc3c([nH]c4ccccc43)c(-c3cc(OC)c(OC)c(OC)c3)n2)cc(OC)c1OC	–
42.2	15.8	2.08	–	–	–	–	–	COc1cc(/C(=C\c2cccc(F)c2)C(=O)NCc2cc3c([nH]c4ccccc43)c(-c3cc(OC)c(OC)c(OC)c3)n2)cc(OC)c1OC	–
40.7	13.3	5.27	–	–	–	–	–	COc1cc(/C=C(/C(=O)NCc2cc3c([nH]c4ccccc43)c(-c3cc(OC)c(OC)c(OC)c3)n2)c2cc(OC)c(OC)c(OC)c2)ccc1O	–
29.9	11.1	3.38	–	–	–	–	–	COc1cc(/C=C(/C(=O)NCc2cc3c([nH]c4ccccc43)c(-c3cc(OC)c(OC)c(OC)c3)n2)c2cc(OC)c(OC)c(OC)c2)cc(OC)c1	–
18.2	16.1	18.4	–	–	–	–	–	CCOc1ccccc1/C=C(/C(=O)NCc1cc2c([nH]c3ccccc32)c(-c2cc(OC)c(OC)c(OC)c2)n1)c1cc(OC)c(OC)c(OC)c1	–
21.7	3.09	2.76	–	–	–	–	–	COc1ccc(-c2nc(CNC(=O)/C(=C/c3cc(OC)cc(OC)c3)c3cc(OC)c(OC)c(OC)c3)cc3c2[nH]c2ccccc23)cc1	–
17.6	8.1	6.59	–	–	–	–	–	COc1cc(/C(=C\c2ccc(Cl)cc2)C(=O)NCc2cc3c([nH]c4ccccc43)c(-c3cc(OC)c(OC)c(OC)c3)n2)cc(OC)c1OC	–
18	7.06	1.16	–	–	–	–	–	COc1ccc(/C=C(/C(=O)NCc2cc3c([nH]c4ccccc43)c(-c3cc(OC)c(OC)c(OC)c3)n2)c2cc(OC)c(OC)c(OC)c2)cc1OC(C)=O	–
23.8	9.84	12.3	–	–	–	–	–	COc1cc(/C=C(/C(=O)NCc2cc3c([nH]c4ccccc43)c(-c3cccc(F)c3)n2)c2cc(OC)c(OC)c(OC)c2)cc(OC)c1OC	–
19.5	6.67	2.23	–	–	–	–	–	COc1ccc(/C=C(/C(=O)NCc2cc3c([nH]c4ccccc43)c(-c3cc(OC)c(OC)c(OC)c3)n2)c2cc(OC)c(OC)c(OC)c2)cc1	–
50.1	8.35	7.08	–	–	–	–	–	COc1cc(/C=C(/C(=O)NCc2cc3c([nH]c4ccccc43)c(-c3cc(OC)c(OC)c(OC)c3)n2)c2cc(OC)c(OC)c(OC)c2)ccc1OC(C)=O	–
23.1	7.88	7.55	–	–	–	–	–	COc1ccc(/C=C(/C(=O)NCc2cc3c([nH]c4ccccc43)c(-c3cc(OC)c(OC)c(OC)c3)n2)c2cc(OC)c(OC)c(OC)c2)cc1O	–
